The values below come from article PMC6272242, “Topical Anti-inflammatory Activity of New Hybrid Molecules of Terpenes and Synthetic Drugs” (Molecules, 2015).

For data set [1], the system named is hepatocytes HepG2. Description: Cytotoxicity, MTT reduction assay, HepG2. Type of data set: cell-based. To be noted: Homo sapiens, confluent cultures, 24 h, read-out: IC50 ± SD, HepG2. The protocol: The human cell lines, MRC-5 normal lung fibroblasts (CCL-171), AGS gastric epithelial adenocarcinoma cells (CRL-1739) and HepG2 hepatocellular carcinoma cells (HB-8065) were obtained from the American Type Culture Collection (ATCC, Manasas, VA, USA). The cells were grown as monolayers in the following media: MRC-5 and HepG2 in MEM and AGS in Ham F-12. The MEM medium contained 2 mM L-glutamine, 1 mM sodium pyruvate and 1.5 g/L sodium bicarbonate. Ham F-12 was supplemented with 2 mM L-glutamine and 1.5 g/L sodium bicarbonate. Both media were supplemented with 10% heat inactivated fetal bovine serum, 100 IU/mL penicillin and 100 µg/mL streptomycin in a humidified incubator with 5% CO2 in air at 37 °C. For the experiments, cells were plated at a density of 25,000 cells/mL in 96-well plates. […] Compounds were first dissolved in DMSO and then in medium. The final concentration of DMSO in the test medium and controls was 1%. […] The cell viability for each compound was calculated comparing the cell viability of the untreated controls (100%) with the cell viability of the different concentrations of each compound. Each concentration was tested in quadruplicate together with the control and repeated three times in separate experiments. Cell viability was determined at the end of the incubation by means of the MTT reduction assay. […] Culture media, antibiotics and fetal bovine serum were obtained from Invitrogen Corp. (Waltham, MA, USA). Other reagents were purchased from Sigma Chemical Co. For the animal experiments all values are presented as median ± SEM. Drug-induced changes were statistically estimated using the Kruskall-Wallis test for comparison between groups and testing, and the Mann-Whitney test was used in the independent data for individual comparisons. The effects were considered significant if p ≤ 0.05. For cytotoxicity experiments, each concentration was tested in quadruplicate together with the control and repeated three times in different experiments. Results are expressed as IC50 values (µM) ± S.D.
Background: Formazan colour is commonly taken as a measure of viable cells.

In data set [2] the test system is lung fibroblasts (MRC-5). Briefly: Cytotoxicity, MTT reduction assay, MRC-5. To be noted: Homo sapiens, MRC5, confluent cultures, 24 h, read-out: IC50 ± SD, MRC-5. The format is cell-based. The method, then:
(§1) The human cell lines, MRC-5 normal lung fibroblasts (CCL-171), AGS gastric epithelial adenocarcinoma cells (CRL-1739) and HepG2 hepatocellular carcinoma cells (HB-8065) were obtained from the American Type Culture Collection (ATCC, Manasas, VA, USA). The cells were grown as monolayers in the following media: MRC-5 and HepG2 in MEM and AGS in Ham F-12. The MEM medium contained 2 mM L-glutamine, 1 mM sodium pyruvate and 1.5 g/L sodium bicarbonate. Ham F-12 was supplemented with 2 mM L-glutamine and 1.5 g/L sodium bicarbonate. Both media were supplemented with 10% heat inactivated fetal bovine serum, 100 IU/mL penicillin and 100 µg/mL streptomycin in a humidified incubator with 5% CO2 in air at 37 °C. For the experiments, cells were plated at a density of 25,000 cells/mL in 96-well plates. […] Compounds were first dissolved in DMSO and then in medium. The final concentration of DMSO in the test medium and controls was 1%. […] The cell viability for each compound was calculated comparing the cell viability of the untreated controls (100%) with the cell viability of the different concentrations of each compound. Each concentration was tested in quadruplicate together with the control and repeated three times in separate experiments. Cell viability was determined at the end of the incubation by means of the MTT reduction assay. Results were converted to percentage of controls, and the IC50 values were graphically obtained from the dose-response curves. Culture media, antibiotics and fetal bovine serum were obtained from Invitrogen Corp. (Waltham, MA, USA). Other reagents were purchased from Sigma Chemical Co. For the animal experiments all values are presented as median ± SEM. Drug-induced changes were statistically estimated using the Kruskall-Wallis test for comparison between groups and testing, and the Mann-Whitney test was used in the independent data for individual comparisons. The effects were considered significant if p ≤ 0.05. For cytotoxicity experiments, each concentration was tested in quadruplicate together with the control and repeated three times in different experiments. Results are expressed as IC50 values (µM) ± S.D.

In data set [3] the test system is human lung fibroblasts (MRC-5), gastric epithelial cells (AGS) and hepatocytes HepG2. Description: Cytotoxicity, MTT reduction assay, summary over the three cell lines. The format is cell-based. To be noted: for IC50: Homo sapiens, MRC-5, AGS and HepG2, 24 h, MTT, read-out: IC50 values, range over the three cell lines; for Cytotoxic effect, in words: MRC-5, AGS and HepG2. The method, then:
as §1

In data set [4] the test system is gastric epithelial cells (AGS). Briefly: Cytotoxicity, MTT reduction assay, AGS. The format is cell-based. The conditions noted are these: Homo sapiens, Epithelial cell, confluent cultures, 24 h, read-out: IC50 ± SD, AGS. The method, then:
as §1

Data set [5] relates to mice ear edema induced by 12-O-tetradecanoylphorbol 13-acetate. Briefly: Topical anti-inflammatory effect, 12-O-tetradecanoylphorbol 13-acetate (TPA) induced ear edema in mice. The conditions noted are these: 1.4 µmol/mouse, 6 h after TPA; for inhibition in vivo at 1.4 µmol/animal: n = 8, read-out: % TATPA ± SEM (percent reduction of the ear edema, TPA). The format is in vivo. The method, then: (§2) The inflammatory agent arachidonic acid (AA) and phorbol 12-myristate 13-acetate (TPA) were used to assess the anti-inflammatory effect/action mechanism of the starting compounds, new synthetic products and reference drugs. […] Adult male CF-1 mice (20–25 g), obtained from a stock maintained at the Chilean Public Health Institute, were used to assess the anti-inflammatory effect. All animals were housed in a climate- and light-controlled room with a 12 h light-dark cycle, fasted overnight before the day of the assays, with free access to water. The anti-inflammatory activity of each compound was evaluated in groups of 8 treated and 16 control mice. Due to ethical considerations, the number of animals was kept to a minimum and single dose experiments were carried out.
(§3) The pro-inflammatory agents TPA and AA, the reference drugs indomethacin and nimesulide were from Sigma. […] After 5 min, inflammation was induced by the application of 20 µL TPA or AA (5 mg/mL) in acetone. […] Control subjects only received TPA or AA. Both, the sample and the TPA or AA, were applied to the inner (10 µL) and outer (10 µL) surfaces of the right ear. The left ear only received acetone. Mice were sacrificed by cervical dislocation (after 6 h of TPA and 1 h AA), and a 6 mm diameter section of the right and left ears were cut and weighed. The weight differences between both ear sections correspond to the edema value. The percent topical anti-inflammatory activity (TA) was evaluated according to the following equation: (1) %TA=[ Wc−Ws/Wc]× 100 where Wc and Ws are the different median values of the weights of the right and the left ear sections of the control and the treated animals, respectively.
(§4) For the animal experiments all values are presented as median ± SEM. Drug-induced changes were statistically estimated using the Kruskall-Wallis test for comparison between groups and testing, and the Mann-Whitney test was used in the independent data for individual comparisons. The effects were considered significant if p ≤ 0.05. For cytotoxicity experiments, each concentration was tested in quadruplicate together with the control and repeated three times in different experiments. Results are expressed as IC50 values (µM) ± S.D.

Data set [6] relates to mice ear edema induced by arachidonic acid. Description: Topical anti-inflammatory effect, arachidonic acid (AA) induced ear edema in mice. Type of data set: in vivo. To be noted: 3.2 µmol/mouse; for inhibition in vivo at 3.2 µmol/animal: n = 8, read-out: % TAAA ± SEM (percent reduction of the ear edema, arachidonic acid). The method, then: as §2, §3, §4
The test system of data set [7] is xylene-induced ear edema. Also on record: method as in PMID 16806590. The conditions noted are these: mice; cited from earlier work.
Data set [8] concerns acetic acid-induced writhing. Details: method as in PMID 12767601. The conditions noted are these: oral administration, ibuprofen at 40 mg/kg; cited from earlier work.

In general, IC50 refers to the concentration needed to halve the response being measured.

Turning to `CC(C)Cc1ccc([C@H](C)C(=O)Oc2cc3c(cc2C(C)C)CCC2C(C)(C)CCC[C@]32C)cc1` (mixture of isomers) [Compound 6, Ferruginyl ibuprofenate], the IC50 was 874 ± 34 µM in data set [1], greater than 1000 µM in data set [2], no less than 874 µM in data set [3] and greater than 1000 µM in data set [4]. In addition, the inhibition in vivo at 1.4 µmol/animal in data set [5] stood at 47.9 ± 4.6%. The inhibition in vivo at 3.2 µmol/animal in data set [6] (1 h after AA) was 14.9 ± 7.1%.
In the case of `CC(C)c1cc2c(cc1O)[C@@]1(C)CCCC(C)(C)[C@@H]1CC2` [Compound 1, ferruginol, reference compound], the IC50 in data set [1] was 39 ± 3 µM; in data set [2], 31 ± 2 µM; in data set [3], 29 to 39 µM; in data set [4] it was 29 ± 1 µM. Further, the “Cytotoxic effect, in words” value in data set [3] is recorded as “strong”. Moreover, the “% TATPA ± SEM (percent reduction of the ear edema, TPA)” value in data set [5] (n = 8) is 20.4 ± 3.1 *^,a %. Moreover, the inhibition in vivo at 1.4 µmol/animal in data set [5] turned out to be 20.4 ± 3.1%. Besides, in data set [6] (1 h after AA, n = 8), the “% TAAA ± SEM (percent reduction of the ear edema, arachidonic acid)” value is listed as 21.0 ± 2.1 *^,a %. For the same molecule, the inhibition in vivo at 3.2 µmol/animal in data set [6] (1 h after AA) came to 21 ± 2.1%.
Consider `C=C1CC[C@@H]2[C@](C)(CCC[C@]2(C)C(=O)O)[C@H]1CC[C@H](C)CCO` [Compound 2, imbricatolic acid, reference compound], for which the IC50 in data set [1] is 111 ± 7 µM; in data set [2], 134 ± 7 µM; in data set [3], 111 to 148 µM; in data set [4], 148 ± 9 µM. In addition, the “Cytotoxic effect, in words” value in data set [3] is reported as “moderate”. The inhibition in vivo at 1.4 µmol/animal in data set [5] worked out at 10.1 ± 4%. For the same molecule, the inhibition in vivo at 3.2 µmol/animal in data set [6] (1 h after AA) came to 5 ± 3%.
For the molecule `C=C1CCC2[C@](C)(CCC[C@]2(C)C(=O)OC)[C@H]1CC[C@@H](C)CCOC(=O)[C@@H](C)c1ccc2cc(OC)ccc2c1` (some centres unmarked) [Compound 11, Imbricatol-15-yl naproxenate methyl ester], the IC50 in data set [1] was greater than 1000 µM; in data set [2], 907 ± 54 µM; in data set [3] it was no less than 601 µM; in data set [4], 601 ± 25 µM. In data set [5], the inhibition in vivo at 1.4 µmol/animal was found to be 42.7 ± 8.3%. Besides, in data set [6] (1 h after AA), the inhibition in vivo at 3.2 µmol/animal came to 20 ± 9.4%.
Consider ibuprofen propyl glucopyranoside ester, for which, in data set [7], the “Reduction of xylene-induced ear edema” value was 52.7%.
Consider `C=C1CCC2[C@](C)(CCC[C@]2(C)C(=O)O)[C@H]1CC[C@@H](C)CCOC(=O)[C@@H](C)c1ccc2cc(OC)ccc2c1` (some centres unmarked) [Compound 10, Imbricatol-15-yl naproxenate], for which the IC50 was 69 ± 4 µM in data set [1], 37 ± 2 µM in data set [2], 29 to 69 µM in data set [3] and 29 ± 2 µM in data set [4]. Also, in data set [5], the inhibition in vivo at 1.4 µmol/animal is 37.7 ± 3.3%. In addition, the inhibition in vivo at 3.2 µmol/animal in data set [6] (1 h after AA) worked out at 16.3 ± 3.8%.
As for `CC(C)Cc1ccc(C(C)C(=O)O)cc1` (centres unmarked) [Compound 4, ibuprofen, reference compound], the IC50 in data set [1], in data set [2], in data set [3] and in data set [4] was greater than 1000 µM throughout. Also, the “Reduction of xylene-induced ear edema” value in data set [7] is on record as 45.9%. The inhibition in vivo at 1.4 µmol/animal in data set [5] is 56.2 ± 3.4%. Further, in data set [6], the “Activity in the AA model, in words” value is “inactive”. Besides, the inhibition in vivo at 3.2 µmol/animal in data set [6] (1 h after AA) amounted to 7.2 ± 5.5%. Besides, in data set [8], the Reduction of stretches was 77.6%.
